# Experimental data from patent US4927842A, “2,3,4,9-tetrahydro-1H-carbazole acetic acid derivatives, composition and use as anti-inflammatories” (American Home Products Corporation, priority 1989, dated 1990).
# Test system: rats
# Assay: Preventative Adjuvant Edema (acute anti-inflammatory effect in rats)
# Type: in vivo, Male Sprague Dawley rats
# Conditions: 25 mg/kg, p.o.; given immediately before, 24 and 48 hours after Freund's complete adjuvant; hind paw edema volume day 0 to day 3
# Method: This test is a primary screen for anti-inflammatory drugs.
# Male Sprague Dawley rats (180-200 g) are used. The animals have free access to water but food is withdrawn 18 hours before testing.
# Freund's complete adjuvant is prepared by suspending 5 mg killed and dried Mycobacterium butyricum (Difco) in 1 mL mineral oil. The test compounds are dissolved in distilled water or suspended in 0.5% Tween 80 in distilled water according to their solubility. For primary screening all drugs are administered by gastric lavage at the arbitrary dosage of 25 mg/kg, p.o. in a volume of 0.5 mL/100 g body weight to groups of 10 animals.
# The method is essentially that described by Wax et al, J. Pharmacol. Exp. Ther., 192, 166-171 (1975). Groups of rats are injected intradermally in the left hand paw with 0.1 mL of Freund's complete adjuvant. The test compound or vehicle is administered immediately before the adjuvant, 24 hours and 48 hours after the adjuvant (day 0, 1 and 2). The injected hind paw volume is measured before the injection of adjuvant and 24 hours after the last drug administration (day 3) by means of a plethysmometer (Buxco Electronics Inc.). The difference between the hind paw volume on day 0 and day 3 represents the edema volume. Etodolac (25 mg/kg, p.o.) is included as a positive control.
# The mean edema volume (expressed as mL±SEM) is calculated for each group and the percentage protection conferred by the drug is calculated: [formula] where c is the mean edema volume for the untreated controls and t is the mean edema volume for the drug treated group.
row,Molecule,% Inhibition [%]
1,"CC[C@]1(CC(=O)O)CC[C@@H](CC=NOC)c2c1[nH]c1c(C)cccc21 (relative stereo) [Example 2, cis-1-Ethyl-2,3,4,9-tetrahydro-4-[2-(methoxyimino)ethyl]-8-methyl-1H-carbazole-1-acetic Acid]",45
2,"CC[C@]1(CC(=O)O)CC[C@@H](CC(C)=O)c2c1[nH]c1c(C)cccc21 (relative stereo) [Example 3, cis-1-Ethyl-2,3,4,9-tetrahydro-8-methyl-4-(2-oxopropyl)-1H-carbazole-1-acetic Acid]",52
3,"CC[C@]1(CC(=O)O)CC[C@@H](CC#N)c2c1[nH]c1c(C)cccc21 (relative stereo) [Example 4, cis-4-(Cyanomethyl)-1-ethyl-2,3,4,9-tetrahydro-8-methyl-1H-carbazole-1-acetic Acid]",52
4,"cis-1-Ethyl-2,3,4,9-tetrahydro-4-[2-(hydroxyimino)ethyl]-8-methyl-1H-carbazole-1-acetic Acid [Example 1]",59
